{
  "source": "patent US6355799B1",
  "about": "“Substituted benzene compounds, process for their preparation, and herbicidal and defoliant compositions containing them” (ISK Americas Incorporated, priority 1997, dated 2002)",
  "format_in_all_cases": "in vivo",
  "key": {"[1]": {"tested_on": "field corn (Zea mays L., var. Dekalb 535, CORN)", "test": "Post-emerge test, crop safety", "details": "phytotoxicity rating 0-100 (0 no damage, 100 complete death), 14 days after application", "how_it_was_run": "(§1)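 Sandy loam pots; pre-emerge: sown 1 d pre-spray, surface-watered after, then bottom-watered. Post-emerge: sown 8–21 d before, 2–3 leaf stage, + 0.25% v/v NIS, bottom-watered. Acetone, 187 l/ha track spray, 15–1000 g ai/ha. 0–100 injury score, day 14.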"}, "[2]": {"tested_on": "upland rice (Oryza sp., var. Tebonnet, RICE)", "test": "Post-emerge test, crop safety", "details": "phytotoxicity rating 0-100 (0 no damage, 100 complete death), 14 days after application", "how_it_was_run": "as §1"}, "[3]": {"tested_on": "ivyleaf morningglory (Ipomoea hederacea, IPOHE)", "test": "Pre-emerge test, greenhouse herbicide activity screening", "details": "pre-emerge, rated 14 days after application, 0 = no damage, 100 = complete death", "how_it_was_run": "as §1"}, "[4]": {"tested_on": "large crabgrass (Digitaria sanguinalis, DIGSA)", "test": "Pre-emerge test, greenhouse herbicide activity screening", "details": "pre-emerge, rated 14 days after application, 0 = no damage, 100 = complete death", "how_it_was_run": "as §1"}, "[5]": {"tested_on": "green foxtail (Setaria viridis, SETVI)", "test": "Pre-emerge test, greenhouse herbicide activity screening", "details": "pre-emerge, rated 14 days after application, 0 = no damage, 100 = complete death", "how_it_was_run": "as §1"}, "[6]": {"tested_on": "velvetleaf (Abutilon theophrasti, ABUTH)", "test": "Pre-emerge test, greenhouse herbicide activity screening", "details": "pre-emerge, rated 14 days after application, 0 = no damage, 100 = complete death", "how_it_was_run": "as §1"}, "[7]": {"tested_on": "lambsquarters (Chenopodium album, CHEAL)", "test": "Pre-emerge test, greenhouse herbicide activity screening", "details": "pre-emerge, rated 14 days after application, 0 = no damage, 100 = complete death", "how_it_was_run": "as §1"}, "[8]": {"tested_on": "barnyardgrass (Echinochloa crus-galli, ECHCG)", "test": "Pre-emerge test, greenhouse herbicide activity screening", "details": "pre-emerge, rated 14 days after application, 0 = no damage, 100 = complete death", "how_it_was_run": "as §1"}, "[9]": {"tested_on": "johnsongrass (Sorghum halepense, SORHA)", "test": "Pre-emerge test, greenhouse herbicide activity screening", "details": "pre-emerge, rated 14 days after application, 0 = no damage, 100 = complete death", "how_it_was_run": "as §1"}, "[10]": {"tested_on": "sicklepod (Cassia obtusifolia, CASOB)", "test": "Pre-emerge test, greenhouse herbicide activity screening", "details": "pre-emerge, rated 14 days after application, 0 = no damage, 100 = complete death", "how_it_was_run": "as §1"}, "[11]": {"tested_on": "ivyleaf morningglory (Ipomoea hederacea, IPOHE)", "test": "Post-emerge test, greenhouse herbicide activity screening", "details": "phytotoxicity rating 0-100 (0 no damage, 100 complete death), 14 days after application", "how_it_was_run": "(§2)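 Rating: 0–100 visual injury, 14 DAA. Application: acetone, 187 l/ha, 15–1000 g ai/ha, flat-fan track sprayer with nozzle 40–45 cm above soil or canopy. Post-emerge runs used 0.25% v/v surfactant on 2–3 leaf plants.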"}, "[12]": {"tested_on": "large crabgrass (Digitaria sanguinalis, DIGSA)", "test": "Post-emerge test, greenhouse herbicide activity screening", "details": "phytotoxicity rating 0-100 (0 no damage, 100 complete death), 14 days after application", "how_it_was_run": "as §2"}, "[13]": {"tested_on": "green foxtail (Setaria viridis, SETVI)", "test": "Post-emerge test, greenhouse herbicide activity screening", "details": "phytotoxicity rating 0-100 (0 no damage, 100 complete death), 14 days after application", "how_it_was_run": "as §2"}, "[14]": {"tested_on": "common ragweed (Ambrosia artemisizfolia L., AMBEL)", "test": "Post-emerge test, greenhouse herbicide activity screening", "details": "250 g ai/ha; phytotoxicity rating 0-100 (0 no damage, 100 complete death), 14 days after application", "how_it_was_run": "as §2"}, "[15]": {"tested_on": "redroot pigweed (Amaranthus retroflexus, AMARE)", "test": "Post-emerge test, greenhouse herbicide activity screening", "details": "phytotoxicity rating 0-100 (0 no damage, 100 complete death), 14 days after application", "how_it_was_run": "as §2"}, "[16]": {"tested_on": "velvetleaf (Abutilon theophrasti, ABUTH)", "test": "Post-emerge test, greenhouse herbicide activity screening", "details": "phytotoxicity rating 0-100 (0 no damage, 100 complete death), 14 days after application", "how_it_was_run": "as §2"}, "[17]": {"tested_on": "lambsquarters (Chenopodium album, CHEAL)", "test": "Post-emerge test, greenhouse herbicide activity screening", "details": "phytotoxicity rating 0-100 (0 no damage, 100 complete death), 14 days after application", "how_it_was_run": "as §2"}, "[18]": {"tested_on": "barnyardgrass (Echinochloa crus-galli, ECHCG)", "test": "Post-emerge test, greenhouse herbicide activity screening", "details": "phytotoxicity rating 0-100 (0 no damage, 100 complete death), 14 days after application", "how_it_was_run": "as §2"}, "[19]": {"tested_on": "johnsongrass (Sorghum halepense, SORHA)", "test": "Post-emerge test, greenhouse herbicide activity screening", "details": "phytotoxicity rating 0-100 (0 no damage, 100 complete death), 14 days after application", "how_it_was_run": "as §2"}, "[20]": {"tested_on": "sicklepod (Cassia obtusifolia, CASOB)", "test": "Post-emerge test, greenhouse herbicide activity screening", "details": "phytotoxicity rating 0-100 (0 no damage, 100 complete death), 14 days after application", "how_it_was_run": "as §2"}, "[21]": {"tested_on": "field corn (Zea mays L., var. Dekalb 535, CORN)", "test": "Pre-emerge test, crop safety", "details": "pre-emerge, rated 14 days after application, 0 = no damage, 100 = complete death", "how_it_was_run": "(§3)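 Herbicidal damage is scored 0 (none) to 100 (complete plant death) two weeks after a simulated field spray. Rates span 15–1000 g ai/ha, delivered in acetone at 187 l/ha. For post-emergence treatments, plants have 2–3 leaves and the spray carries 0.25% v/v non-ionic surfactant.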"}, "[22]": {"tested_on": "upland rice (Oryza sp., var. Tebonnet, RICE)", "test": "Pre-emerge test, crop safety", "details": "pre-emerge, rated 14 days after application, 0 = no damage, 100 = complete death", "how_it_was_run": "as §3"}, "[23]": {"tested_on": "redroot pigweed (Amaranthus retroflexus, AMARE)", "test": "Pre-emerge test, greenhouse herbicide activity screening", "details": "pre-emerge, rated 14 days after application, 0 = no damage, 100 = complete death", "how_it_was_run": "as §3"}},
  "data": [
    {"compound": "COc1c(Cl)cc(F)c(-n2c(=O)cc(C(F)(F)F)n(C)c2=O)c1NC(=O)C1CCCCC1", "note": "[2-19]", "values": [
      {"measurement": "Post-emerge Herbicidal Activity CORN (crop damage)", "setting": "[1]; 63 g ai/ha", "result": 0},
      {"measurement": "Post-emerge Herbicidal Activity CORN (crop damage)", "setting": "[1]; 250 g ai/ha", "result": 0},
      {"measurement": "Post-emerge Herbicidal Activity RICE (crop damage)", "setting": "[2]; 63 g ai/ha", "result": 0},
      {"measurement": "Post-emerge Herbicidal Activity RICE (crop damage)", "setting": "[2]; 250 g ai/ha", "result": 20},
      {"measurement": "Pre-emerge Herbicidal Activity IPOHE (phytotoxicity rating, scale 0-100)", "setting": "[3]; 63 g ai/ha", "result": 10},
      {"measurement": "Pre-emerge Herbicidal Activity IPOHE (phytotoxicity rating, scale 0-100)", "setting": "[3]; 250 g ai/ha", "result": 100},
      {"measurement": "Pre-emerge Herbicidal Activity DIGSA (phytotoxicity rating, scale 0-100)", "setting": "[4]; 63 g ai/ha", "result": 40},
      {"measurement": "Pre-emerge Herbicidal Activity DIGSA (phytotoxicity rating, scale 0-100)", "setting": "[4]; 250 g ai/ha", "result": 100},
      {"measurement": "Pre-emerge Herbicidal Activity SETVI (phytotoxicity rating, scale 0-100)", "setting": "[5]; 63 g ai/ha", "result": 20},
      {"measurement": "Pre-emerge Herbicidal Activity SETVI (phytotoxicity rating, scale 0-100)", "setting": "[5]; 250 g ai/ha", "result": 100},
      {"measurement": "Pre-emerge Herbicidal Activity ABUTH (phytotoxicity rating, scale 0-100)", "setting": "[6]; 63 g ai/ha", "result": 90},
      {"measurement": "Pre-emerge Herbicidal Activity ABUTH (phytotoxicity rating, scale 0-100)", "setting": "[6]; 250 g ai/ha", "result": 100},
      {"measurement": "Pre-emerge Herbicidal Activity CHEAL (phytotoxicity rating, scale 0-100)", "setting": "[7]; 63 g ai/ha", "result": 95},
      {"measurement": "Pre-emerge Herbicidal Activity CHEAL (phytotoxicity rating, scale 0-100)", "setting": "[7]; 250 g ai/ha", "result": 100},
      {"measurement": "Pre-emerge Herbicidal Activity ECHCG (phytotoxicity rating, scale 0-100)", "setting": "[8]; 63 g ai/ha", "result": 0},
      {"measurement": "Pre-emerge Herbicidal Activity ECHCG (phytotoxicity rating, scale 0-100)", "setting": "[8]; 250 g ai/ha", "result": 50},
      {"measurement": "Pre-emerge Herbicidal Activity SORHA (phytotoxicity rating, scale 0-100)", "setting": "[9]; 63 g ai/ha", "result": 0},
      {"measurement": "Pre-emerge Herbicidal Activity SORHA (phytotoxicity rating, scale 0-100)", "setting": "[9]; 250 g ai/ha", "result": 60},
      {"measurement": "Pre-emerge Herbicidal Activity CASOB (phytotoxicity rating, scale 0-100)", "setting": "[10]; 63 g ai/ha", "result": 0},
      {"measurement": "Pre-emerge Herbicidal Activity CASOB (phytotoxicity rating, scale 0-100)", "setting": "[10]; 250 g ai/ha", "result": 10},
      {"measurement": "Post-emerge Herbicidal Activity IPOHE", "setting": "[11]; 63 g ai/ha", "result": 70},
      {"measurement": "Post-emerge Herbicidal Activity IPOHE", "setting": "[11]; 250 g ai/ha", "result": 100},
      {"measurement": "Post-emerge Herbicidal Activity DIGSA", "setting": "[12]; 63 g ai/ha", "result": 0},
      {"measurement": "Post-emerge Herbicidal Activity DIGSA", "setting": "[12]; 250 g ai/ha", "result": 0},
      {"measurement": "Post-emerge Herbicidal Activity SETVI", "setting": "[13]; 63 g ai/ha", "result": 0},
      {"measurement": "Post-emerge Herbicidal Activity SETVI", "setting": "[13]; 250 g ai/ha", "result": 30},
      {"measurement": "Post-emerge Herbicidal Activity AMBEL", "setting": "[14]", "result": 30},
      {"measurement": "Post-emerge Herbicidal Activity AMARE", "setting": "[15]; 63 g ai/ha", "result": 40},
      {"measurement": "Post-emerge Herbicidal Activity AMARE", "setting": "[15]; 250 g ai/ha", "result": 75},
      {"measurement": "Post-emerge Herbicidal Activity ABUTH", "setting": "[16]; 63 g ai/ha", "result": 90},
      {"measurement": "Post-emerge Herbicidal Activity ABUTH", "setting": "[16]; 250 g ai/ha", "result": 100},
      {"measurement": "Post-emerge Herbicidal Activity CHEAL", "setting": "[17]; 63 g ai/ha", "result": 50},
      {"measurement": "Post-emerge Herbicidal Activity CHEAL", "setting": "[17]; 250 g ai/ha", "result": 50},
      {"measurement": "Post-emerge Herbicidal Activity ECHCG", "setting": "[18]; 63 g ai/ha", "result": 0},
      {"measurement": "Post-emerge Herbicidal Activity ECHCG", "setting": "[18]; 250 g ai/ha", "result": 0},
      {"measurement": "Post-emerge Herbicidal Activity SORHA", "setting": "[19]; 63 g ai/ha", "result": 0},
      {"measurement": "Post-emerge Herbicidal Activity SORHA", "setting": "[19]; 250 g ai/ha", "result": 0},
      {"measurement": "Post-emerge Herbicidal Activity CASOB", "setting": "[20]; 63 g ai/ha", "result": 0},
      {"measurement": "Post-emerge Herbicidal Activity CASOB", "setting": "[20]; 250 g ai/ha", "result": 10},
      {"measurement": "Pre-emerge crop damage CORN (phytotoxicity rating, scale 0-100)", "setting": "[21]; 63 g ai/ha", "result": 5},
      {"measurement": "Pre-emerge crop damage CORN (phytotoxicity rating, scale 0-100)", "setting": "[21]; 250 g ai/ha", "result": 40},
      {"measurement": "Pre-emerge crop damage RICE (phytotoxicity rating, scale 0-100)", "setting": "[22]; 63 g ai/ha", "result": 10},
      {"measurement": "Pre-emerge crop damage RICE (phytotoxicity rating, scale 0-100)", "setting": "[22]; 250 g ai/ha", "result": 60},
      {"measurement": "Pre-emerge Herbicidal Activity AMARE (phytotoxicity rating, scale 0-100)", "setting": "[23]; 63 g ai/ha", "result": 80},
      {"measurement": "Pre-emerge Herbicidal Activity AMARE (phytotoxicity rating, scale 0-100)", "setting": "[23]; 250 g ai/ha", "result": 100}
    ]}
  ]
}
